Values of other authors, collected in patent publication US20240285702A1, “Compositions comprising a cannabinoid and uses thereof” (Cannabotech Ltd., priority 2021, published 2024).
Converted amounts (≈) assume the structure as drawn.

Q: Which results are given for `C=C(C)[C@@H]1CCC(C)=C[C@H]1c1c(O)cc(CCCCC)cc1O` [CBD, 2-[(1R,6R)-6-isopropenyl-3-methylcyclohex-2-en-1-yl]-5-pentylbenzene-1,3-diol]?
A: Log P: 5.8; water solubility: 0.7 µg/mL (≈ 2.23 µM)
